± gives the expanded uncertainty stated by the source.
Test: mean ionic activity coefficient (dimensionless); mn = molality of the nth substance listed, in mol/kg
Details: 298.15 K, 101 kPa, Liquid, EMF measurements

[Cl-].[Na+] [sodium chloride] + CNC=O
Details	mean ionic activity coefficient
m1 = 0.0396	0.986 ± 0.01
m1 = 0.052	0.985 ± 0.01
m1 = 0.0642	0.983 ± 0.01
m1 = 0.102	0.984 ± 0.01
m1 = 0.1375	0.984 ± 0.01
m1 = 0.1655	0.978 ± 0.01
m1 = 0.1934	0.971 ± 0.01

[Cl-].[Na+] [sodium chloride] + O
Details	mean ionic activity coefficient
m1 = 0.0496	0.819 ± 0.01
m1 = 0.1857	0.733 ± 0.01
m1 = 0.1979	0.733 ± 0.01
m1 = 0.3096	0.707 ± 0.01
m1 = 0.3711	0.689 ± 0.01
m1 = 0.4571	0.686 ± 0.01
m1 = 0.5916	0.675 ± 0.01
m1 = 0.6871	0.659 ± 0.01
m1 = 0.8318	0.663 ± 0.01
m1 = 1.139	0.651 ± 0.01
m1 = 1.212	0.659 ± 0.01
m1 = 1.77	0.657 ± 0.01
m1 = 1.87	0.67 ± 0.01
m1 = 2.394	0.68 ± 0.01
m1 = 2.624	0.702 ± 0.01
m1 = 3.587	0.75 ± 0.01
m1 = 3.811	0.78 ± 0.01
m1 = 4.654	0.83 ± 0.01
m1 = 5.142	0.891 ± 0.01
m1 = 5.443	0.921 ± 0.01
m1 = 5.693	0.929 ± 0.01
m1 = 5.891	0.97 ± 0.01
m1 = 6.032	0.985 ± 0.01
m1 = 6.085	0.976 ± 0.01
m1 = 6.1	0.997 ± 0.01
